Test system: IL2 release from Jurkat cells
Test: Effect of compounds on IL-2 secretion in T lymphocytes (Jurkat 6.1, anti-CD3/anti-CD28 stimulated, ELISA)
Assay type: cell-based
Conditions: for activity at 1 µM / activity at 10 µM: Homo sapiens, Jurkat, read-out: IL2 release as percentage of anti-CD3/CD28 stimulated release in presence of DMSO, Mean; for activity at 1 µM / activity at 10 µM / IL-2 production, absolute values: 24 h; for IL-2 production, absolute values: 30 min pre-treatment, DMSO control 320.67 (plate 2), 338.25 (plate 3); for effect on IL2 release, in words: 1 and 10 μM
Procedure: The T cell line Jurkat 6.1 (ATCC) was used. Cells were pre-treated for 30 min with 1 μM or 10 μM of the respective compound and then stimulated with plate-bound anti-CD3 (BD Pharmingen) and anti-CD28 (AnCell). DMSO was used as vehicle control. […] After 24 hs the supernatant was collected and IL-2 secretion was measured by ELISA.
Compounds were prepared by dissolution in DMSO to yield final concentrations of 1 and 10 μg/ml

Row | SMILES | activity at 1 µM [%] | activity at 10 µM [%] | IL-2 production, absolute values (compound 1 uM) [pg/mL] | IL-2 production, absolute values (compound 10 uM) [pg/mL] | effect on IL2 release, in words
1 | CC(C)C[C@H](N)C(=O)O[C@@H]1c2ccccc2C[C@@]1(Cc1ccc(C(N)=O)cc1)C1=Cc2ccccc2C1 [Compound 42, (1S,2S)-2-(4-carbamoylbenzyl)-2,3-dihydro-1H,1′H-2,2′-biinden-1-yl L-leucinate] | 76.1 | 30 | 77.71 | 49.57 | 
2 | COC(=O)c1ccc(C[C@@]2(C3=Cc4ccccc4C3)Cc3ccccc3[C@H]2O)cc1 [Compound 17, methyl 4-(((1S,2S)-1-hydroxy-2,3-dihydro-1H,1′H-[2,2′-biinden]-2-yl)methyl)benzoate] |  |  | 168.44 |  | 
3 | CC(C)C[C@H](N)C(=O)O[C@@H]1c2ccccc2C[C@@]1(Cc1ccc(C(=O)O)cc1)C1=Cc2ccccc2C1 [Compound 28, 4-{[(1′S,2′S)-1′-(L-leucyloxy)-1′,3′-dihydro-1H,2′H-2,2′-biinden-2′-yl]methyl}benzoic acid] |  |  | 214.75 | 135.63 | 
4 | CNC(=O)c1ccc(C[C@]2(C3=Cc4ccccc4C3)Cc3ccccc3[C@@H]2O)cc1 [Compound 15, 4-{[(1′R,2′R)-1′-hydroxy-1′,3′-dihydro-1H,2′H-2,2′-biinden-2′-yl]methyl}-N-methylbenzamide] |  |  | 207.78 | 113.67 | 
5 | CC(C)C[C@H](N)C(=O)O[C@H]1c2ccccc2C[C@]1(Cc1ccc(C(=O)N(C)C)cc1)C1=Cc2ccccc2C1 [Compound 38, (1R,2R)-2-[4-(dimethylcarbamoyl)benzyl]-2,3-dihydro-1H,1′H-2,2′-biinden-1-yl L-leucinate] | 107 | 62.7 | 226.75 | 268.63 | inactive
6 | NC(=O)c1ccc(C[C@]2(C3=Cc4ccccc4C3)Cc3ccccc3[C@@H]2O)cc1 [Compound 13, 4-{[(1′R,2′R)-1′-hydroxy-1′,3′-dihydro-1H,2′H-2,2′-biinden-2′-yl]methyl}benzamide] |  |  | 276.78 | 151.78 | 
7 | CNC(=O)c1ccc(C[C@@]2(C3=Cc4ccccc4C3)Cc3ccccc3[C@H]2O)cc1 [Compound 22, 4-{[(1′S,2′S)-1′-hydroxy-1′,3′-dihydro-1H,2′H-2,2′-biinden-2′-yl]methyl}-N-methylbenzamide] |  |  | 198.56 | 113.33 | 
8 | NCC(=O)O[C@H]1c2ccccc2C[C@]1(Cc1ccc(C(=O)O)cc1)C1=Cc2ccccc2C1 [Compound 27, 4-{[(1′R,2′R)-1′-(glycyloxy)-1′,3′-dihydro-1H,2′H-2,2′-biinden-2′-yl]methyl}benzoic acid] |  |  | 350.13 | 172.88 | potentiates release of IL2
9 | CNC(=O)c1ccc(C[C@]2(C3=Cc4ccccc4C3)Cc3ccccc3[C@@H]2OC(=O)[C@@H](N)CC(C)C)cc1 [Compound 37, (1R,2R)-2-[4-(methylcarbamoyl)benzyl]-2,3-dihydro-1H,1′H-2,2′-biinden-1-yl L-leucinate] | 99.2 | 50.2 | 275.50 | 79.00 | 
10 | CCOC(=O)c1ccc(C[C@]2(C3=Cc4ccccc4C3)Cc3ccccc3[C@@H]2O)cc1 [Compound 11, ethyl 4-(((1R,2R)-1-hydroxy-2,3-dihydro-1H,1′H-[2,2′-biinden]-2-yl)methyl)benzoate] |  |  | 272.22 | 105.11 | 
11 | COC(=O)c1ccc(C[C@]2(C3=Cc4ccccc4C3)Cc3ccccc3[C@@H]2OC(=O)[C@@H](N)CC(C)C)cc1 [Compound 32, methyl 4-(((1R,2R)-1-(((S)-2-amino-4-methylpentanoyl)oxy)-2,3-dihydro-1H,1′H-[2,2′-biinden]-2-yl)methyl)benzoate] | 86.2 | 40.8 | 215.25 | 74.88 | 
12 | CCCOC(=O)c1ccc(C[C@@]2(C3=Cc4ccccc4C3)Cc3ccccc3[C@H]2OC(=O)[C@@H](N)CC(C)C)cc1 [Compound 41, propyl 4-(((1S,2S)-1-(((S)-2-amino-4-methylpentanoyl)oxy)-2,3-dihydro-1H, 1′H-[2,2′-biinden]-2-yl)methyl)benzoate] | 77 | 42.1 | 99.50 | 62.50 | 
13 | CNC(=O)c1ccc(C[C@@]2(C3=Cc4ccccc4C3)Cc3ccccc3[C@H]2OC(=O)[C@@H](N)CC(C)C)cc1 [Compound 44, (1S,2S)-2-[4-(methylcarbamoyl)benzyl]-2,3-dihydro-1H,1′H-2,2′-biinden-1-yl L-leucinate] | 76.2 | 21 | 72.50 | 12.43 | 
14 | CC[C@H](C)[C@H](N)C(=O)O[C@H]1c2ccccc2C[C@]1(Cc1ccc(C(=O)O)cc1)C1=Cc2ccccc2C1 [Compound 26, 4-{[(1′R,2′R)-1′-(L-isoleucyloxy)-1′,3′-dihydro-1H,2′H-2,2′-biinden-2′yl]methyl}benzoic acid] |  |  | 202.25 | 192.63 | 
15 | CN(C)C(=O)c1ccc(C[C@]2(C3=Cc4ccccc4C3)Cc3ccccc3[C@@H]2O)cc1 [Compound 16, 4-{[(1′R,2′R)-1′-hydroxy-1′,3′-dihydro-1H,2′H-2,2′-biinden-2′-yl]methyl}-N,N-dimethylbenzamide] |  |  | 243.00 | 171.78 | 
16 | CC(C)C[C@H](N)C(=O)O[C@H]1c2ccccc2C[C@]1(Cc1ccc(C(N)=O)cc1)C1=Cc2ccccc2C1 [Compound 35, (1R,2R)-2-(4-carbamoylbenzyl)-2,3-dihydro-1H,1′H-2,2′-biinden-1-yl L-leucinate] | 149 | 95.5 | 238.88 | 189.38 | inactive
17 | CC(C)C[C@H](N)C(=O)O[C@H]1c2ccccc2C[C@]1(Cc1ccc(C(=O)NCCO)cc1)C1=Cc2ccccc2C1 [Compound 36, (1R,2R)-2-{4-[(2-hydroxyethyl)carbamoyl]benzyl}-2,3-dihydro-1H,1′H-2,2′-biinden-1-yl L-leucinate] | 96 | 56.3 | 207.38 | 138.13 | 
18 | CC(C)[C@H](N)C(=O)O[C@@H]1c2ccccc2C[C@@]1(Cc1ccc(C(=O)O)cc1)C1=Cc2ccccc2C1 [Compound 29, 4-{[(1′S,2′S)-1′-(L-valyloxy)-1′,3′-dihydro-1H,2′H-2,2′-biinden-2′-yl]methyl}benzoic acid] |  |  | 220.50 | 177.88 | 

From US20150141506A1, “INDANE DIMERS FOR USE IN THE TREATMENT OF AUTOIMMUNE INFLAMMATORY DISEASE” (Venantius Limited, priority 2012, published 2015)
